Experiments:
ACER3 = biological target: T1, ACER3 (Mus musculus, UniProt Q9D099); assay: Hydrolysis of RBM5-177 by microsomes of ACER3 overexpressing cells, UPLC-HRMS; format: biochemical; conditions: microsomes from ACER3 overexpressing cells, RBM5-177 5 µM, 30 min
T1 construct: endogenous in cells; host or cells: MEF5 cells (NC-deficient)
T1 sequence (Q9D099 1-267): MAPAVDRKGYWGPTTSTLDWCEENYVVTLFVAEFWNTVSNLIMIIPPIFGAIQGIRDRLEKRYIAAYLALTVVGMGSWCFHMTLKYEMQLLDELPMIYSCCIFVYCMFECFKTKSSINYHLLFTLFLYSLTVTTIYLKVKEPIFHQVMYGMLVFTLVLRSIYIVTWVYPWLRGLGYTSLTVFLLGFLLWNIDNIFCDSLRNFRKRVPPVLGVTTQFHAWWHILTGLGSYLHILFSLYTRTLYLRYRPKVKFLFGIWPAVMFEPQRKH
Procedure: Cell lysates obtained from HeLa T-Rex ACER1-TET-ON, HeLa T-Rex ACER2-TET-ON and MEF5 overexpressing ACER3 cells were transferred to ultracentrifuge tubes and were spun at 100000 g for 1 h at 4°C. Pellets were resuspended in a 0.25 M saccharose solution and protein concentration was determined as specified below.
(§1) Cells were seeded at 5 × 10^5 cells/mL into 6 well plates (1 mL/well) and were allowed to adhere for 24 h. Medium was replaced with fresh medium containing RBM5-177, RBM5-019 or RBM2-37 (5 µM final concentration). After 30 min, medium was removed; cells were washed with 400 µL PBS and harvested with 400 µL Trypsin-EDTA and 600 µL of medium. NC recombinant enzyme, lysates from A375-AC overexpressing cells, MEF5 or microsomes from HeLa T-Rex ACER1-TET-ON and HeLa T-Rex […] activity buffer. Cell pellets were resuspended with 100 µL of H2O and mixed with 750 µL of methanol: chloroform, 2:1. Samples were heated at 48°C overnight and next day, 75 µL of 1 M KOH in methanol were added, followed by 2 h incubation at 37°C. Afterwards, the saponification was neutralised with 75 µL of 1 M acetic acid and solvent was removed using a Speed Vac Savant SPD131 DDA (Thermo Scientific). […]

[1] = biological target: T2, human recombinant neutral ceramidase (NC) (Homo sapiens, UniProt Q9NR71); assay: Hydrolysis of RBM5-177 by recombinant NC, UPLC-HRMS; format: biochemical; conditions: RBM5-177 5 µM, 30 min
T2 construct: purchased R&D Systems
Procedure: as §1, with “Scientific). Sphingolipid extracts, fortified with internal standards (N-dodecanoylsphingosine, N-dodecanoylglucosylsphingosine, N-dodecanoylsphingosylphosphorylcoline and C17-sphinganine 0.2 nmol each) were solubilised in 150 µL of methanol. Samples were then centrifuged at 9,300 g for 3 min and 130 µL of the supernatant were injected to a Waters Aquity UPLC system connected to a Waters LCT Premier Orthogonal Accelerated Time of Flight Mass Spectrometer (Waters,Milford, MA, USA) operated in positive electrospray ionisation mode.” for “Scientific).”

acid ceramidase (AC) = biological target: T3, acid ceramidase (AC) (Homo sapiens, UniProt Q13510); assay: AC activity in intact cells by UPLC-HRMS quantification of RBM5-019 and reacylated products; format: cell-based; set-up: expressed in transfected cells; host or cells: A375/+Dox (overexpressing AC); conditions: A375/+Dox
T3 sequence (Q13510 143-395 limits assumed): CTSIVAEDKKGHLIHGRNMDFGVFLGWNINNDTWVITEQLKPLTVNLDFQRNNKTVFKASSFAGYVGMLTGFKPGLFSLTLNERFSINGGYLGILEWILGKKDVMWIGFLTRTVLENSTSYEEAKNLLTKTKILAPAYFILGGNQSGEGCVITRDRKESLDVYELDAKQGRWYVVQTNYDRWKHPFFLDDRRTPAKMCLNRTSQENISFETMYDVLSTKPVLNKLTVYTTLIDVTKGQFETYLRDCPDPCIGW
T3 sequence (Q13510 22-142 limits assumed): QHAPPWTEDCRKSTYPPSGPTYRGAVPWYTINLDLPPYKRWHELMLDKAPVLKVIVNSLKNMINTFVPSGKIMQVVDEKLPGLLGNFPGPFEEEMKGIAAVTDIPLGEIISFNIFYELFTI
Procedure: Cells were seeded at 5 × 10^5 cells/mL into 6 well plates (1 mL/well) and were allowed to adhere for 24 h. Medium was replaced with fresh medium containing RBM5-177, RBM5-019 or RBM2-37 (5 μM final concentration). After 30 min, medium was removed; cells were washed with 400 μL PBS and harvested with 400 μL Trypsin-EDTA and 600 μL of medium. NC recombinant enzyme, lysates from A375-AC overexpressing cells, MEF5 or microsomes from HeLa T-Rex ACER1-TET-ON and HeLa T-Rex ACER2-TET-ON cells stably overexpress ACER1 orACER2 respectively were incubated with RBM5-177 or RBM5-019 (10 μM final concentration) for 3 h in the corresponding ceramidase activity buffer. Cell pellets were resuspended with 100 μL of H2O and mixed with 750 μL of methanol: chloroform, 2:1. Samples were heated at 48°C overnight and next day, 75 μL of 1 M KOH in methanol were added, followed by 2 h incubation at 37°C. Afterwards, the saponification was neutralised with 75 μL of 1 M acetic acid and solvent was removed using a […] (Thermo Scientific). Sphingolipid extracts, fortified with internal standards (N-dodecanoylsphingosine, N-dodecanoylglucosylsphingosine, N-dodecanoylsphingosylphosphorylcoline and C17-sphinganine 0.2 nmol each) were solubilised in 150 μL of methanol. Samples were then centrifuged at 9,300 g for 3 min and 130 μL of the supernatant were injected to a Waters Aquity UPLC system connected to a Waters LCT Premier Orthogonal Accelerated Time of Flight Mass Spectrometer (Waters,Milford, MA, USA) operated in positive electrospray ionisation mode. Full scan spectra from 50 to 1500 Da were acquired and individual spectra were summed to produce data points each 0.2 s. Mass accuracy and reproducibility were maintained by using an independent reference spray by the LockSpray interference. The analytical column was a 100 mm x2.1 mm i.d., 1.7 μm C8 Acquity UPLC BEH (Waters). The two mobile phases were phase A: methanol/water/formic acid (74/25/1 v/v/v); phase B: methanol/formic acid (99/1 v/v), both also contained 5 mM ammonium formate. […]

T2 sequence (Q9NR71 whole entry): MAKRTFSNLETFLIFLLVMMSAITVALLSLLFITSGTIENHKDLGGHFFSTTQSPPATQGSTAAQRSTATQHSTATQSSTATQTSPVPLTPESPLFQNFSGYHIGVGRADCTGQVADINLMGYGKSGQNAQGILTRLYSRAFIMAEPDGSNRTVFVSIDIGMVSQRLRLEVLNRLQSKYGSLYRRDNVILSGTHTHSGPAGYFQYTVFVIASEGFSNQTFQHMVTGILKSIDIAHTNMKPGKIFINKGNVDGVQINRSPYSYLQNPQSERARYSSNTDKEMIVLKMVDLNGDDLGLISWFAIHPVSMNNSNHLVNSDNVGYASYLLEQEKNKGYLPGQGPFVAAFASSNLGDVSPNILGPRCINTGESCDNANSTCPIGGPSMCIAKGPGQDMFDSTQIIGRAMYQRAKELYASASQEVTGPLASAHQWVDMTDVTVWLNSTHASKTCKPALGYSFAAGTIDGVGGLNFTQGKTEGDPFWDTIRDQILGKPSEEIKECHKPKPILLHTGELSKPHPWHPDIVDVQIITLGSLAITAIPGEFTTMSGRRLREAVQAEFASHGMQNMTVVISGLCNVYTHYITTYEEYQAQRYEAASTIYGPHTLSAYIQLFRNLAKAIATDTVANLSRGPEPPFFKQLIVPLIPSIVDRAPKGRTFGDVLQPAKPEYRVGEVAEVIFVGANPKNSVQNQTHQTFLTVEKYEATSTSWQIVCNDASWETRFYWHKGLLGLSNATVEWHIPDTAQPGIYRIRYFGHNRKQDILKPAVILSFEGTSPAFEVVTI

effect on levels of RBM5-19 and reacylated products (acid ceramidase (AC); SOCLAC 5 µM 1 h pre treatment, RBM5-177 5 µM 4 h (Fig. 6B))	Structure (SMILES)	RBM5-19 formation (hydrolysis as substrate) (ACER3)	RBM5-19 formation (hydrolysis as substrate) [1]	effect on formation of RBM5-19 and transacylated products (acid ceramidase (AC); SOCLAC 5 µM 1 h, RBM5-177 5 µM 4 h (Fig. 4B))
	CCCCCCCC(=O)N[C@@H](C)[C@H](O)CCCCCCCCCCCCN=[N+]=[N-] [RBM5-177, N-((2S,3R)-15-azido-3-hydroxypentadecan-2-yl)octanamide]	transformed into the free amine only by AC	transformed into the free amine only by AC	
dropped dramatically	CCCCCCCCCCCCC/C=C/[C@@H](O)[C@H](CO)NC(=O)CCl [SOCLAC]			precluded the formation of both RBM5-19 and transacylated products
